Measured values published in PubChem BioAssay (NCI).
Values joined by “and” are separate entries in the source; they are usually repeats but may differ in a detail not shown here. Identical values can stand only once.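 Grown in 96-well plates, cells were treated for 48 hours with each compound at five concentrations. Insufficient inhibition: endpoint recorded as highest concentration tested. GI50: concentration for 50% inhibition of growth. TGI is the concentration that stops growth completely.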

How the values were obtained:
Test in all cases: growth of human tumour cells (NCI), 48 h
[1] = test system: 786-0 renal
[2] = test system: A549 NSCLC
[3] = test system: ACHN renal
[4] = test system: CCRF-CEM leukemia
[5] = test system: COLO 205 colon
[6] = test system: DLD-1 colon
[7] = test system: DMS 273 small cell lung
[8] = test system: EKVX NSCLC
[9] = test system: HCC-2998 colon
[10] = test system: HCT-15 colon
[11] = test system: HL-60(TB) leukemia
[12] = test system: HOP-18 NSCLC
[13] = test system: HOP-62 NSCLC
[14] = test system: HOP-92 NSCLC
[15] = test system: HT29 colon
[16] = test system: IGROV1 ovarian
[17] = test system: LOX IMVI melanoma
[18] = test system: LXFL 529 NSCLC
[19] = test system: M19-MEL melanoma
[20] = test system: MALME-3M melanoma
[21] = test system: MOLT-4 leukemia
[22] = test system: NCI-H226 lung
[23] = test system: NCI-H23 lung
[24] = test system: NCI-H460 lung
[25] = test system: OVCAR-3 ovarian
[26] = test system: OVCAR-5 ovarian
[27] = test system: OVCAR-8 ovarian
[28] = test system: RPMI-8226 leukemia
[29] = test system: RXF 393 renal
[30] = test system: RXF-631 renal
[31] = test system: SF-268 CNS
[32] = test system: SF-295 CNS
[33] = test system: SF-539 CNS
[34] = test system: SK-MEL-2 melanoma
[35] = test system: SK-MEL-28 melanoma
[36] = test system: SK-OV-3 ovarian
[37] = test system: SN12C renal
[38] = test system: SNB-19 CNS
[39] = test system: SNB-75 CNS
[40] = test system: SNB-78 CNS
[41] = test system: SR leukemia
[42] = test system: SW-620 colon
[43] = test system: TK-10 renal
[44] = test system: U251 CNS
[45] = test system: UACC-257 melanoma
[46] = test system: UACC-62 melanoma
[47] = test system: UO-31 renal
[48] = test system: XF 498 CNS
[49] = test system: CAKI-1 renal
[50] = test system: HCT-116 colon
[51] = test system: K-562 leukemia
[52] = test system: KM12 colon
[53] = test system: KM20L2 colon
[54] = test system: M14 melanoma
[55] = test system: NCI-H522 lung
[56] = test system: OVCAR-4 ovarian
[57] = test system: SK-MEL-5 melanoma
[58] = test system: A498 renal

COC1CC(OC2C(C)OC(OC3C(C)OC(OC4CCC5(C)C(=CCC6(O)C5CC(OC(=O)c5ccc(O)cc5)C5(C)C(O)(C(C)=O)CCC65O)C4)CC3OC)CC2OC)OC(C)C1O (configuration not stated) (tested in a mixture with another compound)
TGI [1]: 57.1 µM
TGI [2]: > 100 µM
TGI [3]: > 100 µM
TGI [4]: 92.7 µM
TGI [5]: 55.3 µM
TGI [6]: > 100 µM
TGI [7]: > 100 µM
TGI [8]: > 100 µM
TGI [9]: 60.5 µM
TGI [10]: > 100 µM
TGI [11]: 46.9 µM
TGI [12]: > 100 µM
TGI [13]: > 100 µM
TGI [14]: 59.5 µM
TGI [15]: > 100 µM
TGI [16]: > 100 µM
TGI [17]: 34.8 µM
TGI [18]: 78.4 µM
TGI [19]: > 100 µM
TGI [20]: 74.6 µM
TGI [21]: 82.2 µM
TGI [22]: > 100 µM
TGI [23]: 81.6 µM
TGI [24]: > 100 µM
TGI [25]: 57.2 µM
TGI [26]: > 100 µM
TGI [27]: 82.5 µM
TGI [28]: 95.8 µM
TGI [29]: > 100 µM
TGI [30]: > 100 µM
TGI [31]: > 100 µM
TGI [32]: > 100 µM
TGI [33]: 72.6 µM
TGI [34]: 45.3 µM
TGI [35]: > 100 µM
TGI [36]: > 100 µM
TGI [37]: > 100 µM
TGI [38]: > 100 µM
TGI [39]: > 100 µM
TGI [40]: 57.2 µM
TGI [41]: 76.5 µM
TGI [42]: > 100 µM
TGI [43]: > 100 µM
TGI [44]: 57.5 µM
TGI [45]: 51.3 µM
TGI [46]: 52.7 µM
TGI [47]: 75 µM
TGI [48]: 9.05 µM

Cn1cc(NC(=O)c2cc(NC(=O)CCCCCCCCC(=O)Nc3cc(C(=O)Nc4cc(C(=O)NCCC(N)N)n(C)c4)n(C)c3)cn2C)cc1C(=O)NCCC(=N)N
TGI [1]: 47.1 µM
TGI [2]: 40 µM
TGI [3]: 36.5 µM
TGI [49]: 49.7 µM
TGI [4]: 49.3 µM
TGI [5]: > 100 µM
TGI [6]: 73.9 µM
TGI [7]: 55.8 µM
TGI [8]: 48.1 µM
TGI [9]: 52 µM
TGI [50]: 55.3 µM
TGI [10]: > 100 µM
TGI [12]: 47.2 µM
TGI [13]: 59.4 µM
TGI [14]: 65.2 µM
TGI [15]: 49.7 µM
TGI [16]: 74.4 µM
TGI [51]: 40.9 µM
TGI [52]: 63.4 µM
TGI [53]: 44 µM
TGI [17]: > 100 µM
TGI [18]: 76.9 µM
TGI [54]: 66.3 µM
TGI [19]: 66 µM
TGI [20]: 15.5 µM
TGI [21]: 49.1 µM
TGI [22]: 70.7 µM
TGI [23]: > 100 µM
TGI [24]: 62 µM
TGI [55]: 79.2 µM
TGI [25]: 74.5 µM
TGI [56]: > 100 µM
TGI [26]: 45.3 µM
TGI [27]: 52.4 µM
TGI [28]: 28.6 µM
TGI [29]: 43.2 µM
TGI [30]: 71.2 µM
TGI [31]: 66.1 µM
TGI [32]: 74.8 µM
TGI [33]: 54.4 µM
TGI [34]: 49.3 µM
TGI [35]: 43.2 µM
TGI [57]: 30.2 µM
TGI [36]: 78.7 µM
TGI [37]: 68.9 µM
TGI [38]: 62.5 µM
TGI [39]: 55.3 µM
TGI [40]: 93.1 µM
TGI [42]: 44.9 µM
TGI [43]: 38.9 µM
TGI [44]: 36.8 µM
TGI [45]: 57 µM
TGI [46]: 60.1 µM
TGI [47]: 56.9 µM
TGI [48]: 66.8 µM

CCOc1ccc(/C=C\c2cc(OC)c(OC)c(OC)c2)cc1
TGI [1]: > 100 µM
TGI [58]: 0.0248 µM
TGI [2]: > 100 µM
TGI [3]: > 100 µM
TGI [49]: 18.6 µM
TGI [4]: 91.3 µM
TGI [5]: 0.399 µM
GI50 [6]: 0.0292 µM
TGI [6]: > 100 µM
TGI [8]: > 100 µM
TGI [50]: 0.152 µM
GI50 [10]: 0.0322 µM
TGI [10]: 0.286 µM
TGI [11]: 0.00354 µM and 0.0155 µM
GI50 [12]: > 100 µM
TGI [12]: > 100 µM
TGI [14]: 0.0512 µM
GI50 [16]: 0.0317 µM
TGI [16]: > 100 µM
TGI [51]: > 100 µM
GI50 [52]: 0.0172 µM
TGI [52]: 0.185 µM
TGI [53]: 0.00113 µM
TGI [17]: > 100 µM
TGI [54]: > 100 µM
TGI [19]: > 100 µM
TGI [21]: 17.8 µM
TGI [22]: 0.0223 µM and 0.024 µM
TGI [23]: 0.111 µM
GI50 [56]: 0.403 µM
TGI [56]: > 100 µM
TGI [26]: 61.7 µM
TGI [28]: 5.03 µM
TGI [29]: 0.000904 µM
TGI [30]: > 100 µM
TGI [31]: > 100 µM
TGI [32]: 0.000209 µM
TGI [33]: 0.000685 µM
TGI [35]: > 100 µM
TGI [57]: 0.117 µM
TGI [37]: 60.5 µM
TGI [39]: 0.000226 µM
TGI [40]: > 100 µM
TGI [42]: > 100 µM
TGI [43]: > 100 µM
TGI [44]: 0.0132 µM and 0.0341 µM
TGI [45]: 98.6 µM
TGI [46]: > 100 µM
TGI [48]: 0.0917 µM
